How the values were obtained:
[1] = tested on: PR20; settings: compared with darunavir or wild-type PR; cited from earlier work
[2] = tested on: TFR-PR20; settings: cited from earlier work
[3] = tested on: PR20; test: Kinetic assay of PR20 proteolytic activity with fluorogenic substrate; assay type: biochemical, HIV-1; settings: Ki PR20 / Ki wild-type PR
[4] = tested on: TFR-PR20; test: Inhibition of N-terminal autoprocessing of mutant precursor in E. coli; assay type: cell-based, HIV-1; settings: tests up to 100 μM concentration
[5] = molecular target: T1, TFR-PR (Human immunodeficiency virus type 1, UniProt P03366); test: Inhibition of N-terminal autoprocessing of wild-type precursor in E. coli; assay type: cell-based, HIV-1
[6] = blood–brain barrier penetration; cited from earlier work
[7] = molecular target: PR20 (Human immunodeficiency virus type 1, UniProt P03366, D530N/I547V/I584V, form not given); test: Kinetic assay of PR20 proteolytic activity with fluorogenic substrate; assay type: biochemical, HIV-1; settings: versus darunavir KL 41 nM
[8] = tested on: highly darunavir resistant strain of HIV-1; settings: strain selected in the laboratory; cited from earlier work
[9] = molecular target: T1, TFR-PR; settings: cited from earlier work

Row | SMILES | inhibition of autoprocessing of PR20-containing precursors (in words) [2] | inhibition of autoprocessing of TFR-PR20 precursor [4] | IC50 [5] | inhibition of autoprocessing of TFR-PR relative to other clinical protease inhibitors (in words) [9] | further results
1 | COc1ccc(S(=O)(=O)N(C[C@H]2CCC(=O)N2)C[C@@H](O)[C@H](Cc2ccccc2)NC(=O)O[C@@H]2C[C@@H]3CCO[C@@H]3C2)cc1 [GRL-02031A] | neither GRL-02031A nor GRL-0519A inhibits the autoprocessing |  |  |  | binding affinity for PR20 (in words) [1]: weaker affinity for PR20
2 | COc1ccc(S(=O)(=O)N(CC(C)C)C[C@@H](O)[C@H](Cc2ccccc2)NC(=O)O[C@H]2CO[C@H]3OC[C@H](OC)[C@H]32)cc1 [GRL-4410A] |  | no significant improvement was observed in the inhibition | 1 to 2 µM |  | fold weaker inhibition (Ki) of PR20 than wild-type PR [3]: 1000 fold
3 | CC(C)CN(C[C@@H](O)[C@H](Cc1ccccc1)NC(=O)O[C@H]1CO[C@H]2OCC(F)(F)[C@H]21)S(=O)(=O)c1ccc(N)cc1 [GRL-5010A] |  | no significant improvement was observed in the inhibition | 1 to 2 µM |  | fold higher apparent permeability coefficient (Papp) than darunavir [6]: 6.5 fold; fold lower Ki for PR20 relative to darunavir binding affinity (KL) [7]: about 2 fold; antiviral activity against highly darunavir resistant HIV-1 (in words) [8]: moderate antiviral activity
4 | COC(=O)N[C@H](C(=O)N[C@@H](Cc1ccccc1)[C@@H](O)CN(Cc1ccc(-c2ccccn2)cc1)NC(=O)[C@@H](NC(=O)OC)C(C)(C)C)C(C)(C)C [atazanavir] |  |  |  | inhibited most effectively | 
5 | CC(C)CN(C[C@@H](O)[C@H](Cc1ccccc1)NC(=O)O[C@H]1CO[C@H]2OCC[C@H]21)S(=O)(=O)c1ccc(N)cc1 [darunavir] | like darunavir, neither GRL-02031A nor GRL-0519A inhibits the autoprocessing |  |  | inhibited most effectively | 
6 | CC(C)(C)NC(=O)[C@@H]1C[C@@H]2CCCC[C@@H]2CN1C[C@@H](O)[C@H](Cc1ccccc1)NC(=O)[C@H](CC(N)=O)NC(=O)c1ccc2ccccc2n1 [saquinavir] |  |  |  | inhibited most effectively | 

Reference: article PMC4522690 (Journal of medicinal chemistry, 2015)
